Measured values taken from US20030110524A1, “TRANSGENIC ORGANISMS AND THEIR USES” (priority 1997, published 2003).

Assays:
[1] = tested on: lung fibroblast cells derived from control rats; assay: Survival of lung fibroblast cells from control rats with drugs; format: cell-based, rat; conditions: control rat cells, drugs added at day 2, geneticin 400 μg/ml, 5FC 100 μg/ml
Experimental: (§1) Fibroblast cultures derived from lung of adult CD2/neo^r, TG/TK/neo^r and control animals were produced and expanded by routine methods (Freshney (1987), Alan R. Liss, New York). Twenty-four hours after plating, geneticin (400 μg/ml) was added to cultures originating from both types of transgenic rats and from control rats, and replaced every three days with fresh medium. When required, cells were subcultured (1:3) to prevent them becoming confluent, again by basic culture methods (Freshney 1987). Cell counts were made manually in 20 fields chosen randomly and the values at each time point, after allowing for changes due to subculturing, were aggregated. […] In the absence of added geneticin, no change in cell survival from either of the transgenic animals was observed.
(§2) The effects of 5-fluorocytosine (5FC) were also determined. 5-fluorocytosine at a concentration of 100 μg/ml had no effect on fibroblast cells derived from control animals or from the TG/TK/neo^r transgenic. In the cells derived from the CD2/neo^r transgenic animal, however, 94% of the originally-plated cells died, or were non-functional (as determined by their failure to exclude trypan blue) after 10 days culture in the presence of 5FC (Table 2).
(§3) Drugs were added at day 2 in culture. Values are related to the number of cells found in control cultures without drug additions at various times after plating, and allowing for dilutions resulting from passaging. Figures are the means of three separate determinations, the standard errors all being less than 15% of the mean.

[2] = tested on: lung fibroblast cells derived from TG/TK/neo^r transgenic rats; assay: Survival of lung fibroblast cells from TG/TK/neo^r transgenic rats with drugs; format: cell-based, rat; conditions: TG/TK/neo^r rat cells, drugs added at day 2, geneticin 400 μg/ml, 5FC 100 μg/ml
Experimental: as §1, §2, §3

[3] = tested on: lung fibroblast cells derived from CD2/neo^r transgenic rats; assay: Survival of lung fibroblast cells from CD2/neo^r transgenic rats with drugs; format: cell-based, rat; conditions: CD2/neo^r rat cells, drugs added at day 2, geneticin 400 μg/ml, 5FC 100 μg/ml
Experimental: as §1, §2, §3

[4] = tested on: thyroid cells derived from control rats; assay: Survival of thyroid cells from control rats with drugs; format: cell-based, rat; conditions: control rat cells, drugs added at day 2, geneticin 400 μg/ml, ACG 10 μg/ml
Experimental: (§4) Thyroid cultures derived from the thyroid gland of adult CD2/neo^r, TG/TK/neo^r and control animals were produced by routine methods (Freshney, 1987). Twenty-four hours after plating, geneticin (400 μg/ml) was added to cultures originating from both types of transgenic and the control rats, and replaced every three days with fresh medium. When required, cells were subcultured (1:2) to prevent their becoming confluent. Cell counts were made manually in 20 fields chosen randomly, and the values at each time point, after allowing for changes due to subculturing, were aggregated (Table 3). […] Ten days later, cell counts were again made of 20 fields chosen at random. […] The results were as expected in view of the specific and non-specific expression of the positive and negative selection markers, in the TG/TK/neo^r and CD2/neo^r transgenics, respectively.
as §3, with “allow” for “allowing”

[5] = tested on: thyroid cells derived from TG/TK/neo^r transgenic rats; assay: Survival of thyroid cells from TG/TK/neo^r transgenic rats with drugs; format: cell-based, rat; conditions: TG/TK/neo^r rat cells, drugs added at day 2, geneticin 400 μg/ml, ACG 10 μg/ml
Experimental: as §4
as §3, with “allow” for “allowing”

[6] = tested on: thyroid cells derived from CD2/neo^r transgenic rats; assay: Survival of thyroid cells from CD2/neo^r transgenic rats with drugs; format: cell-based; conditions: CD2/neo^r rat cells, drugs added at day 2, geneticin 400 μg/ml, ACG 10 μg/ml
Experimental: as §4
as §3, with “allow” for “allowing”

[7] = tested on: spinal cord cells derived from the CD2-neo^r transgenic rat; assay: Survival and development of spinal cord cells from the CD2-neo^r transgenic rat under geneticin; format: cell-based; conditions: geneticin 1 mg/ml; 60 days in vitro
Experimental: Cultures of spinal cord cells derived from the CD2-neo^r transgenic rat were grown in small flasks, using previously established methods (Foster et al., (1990) Eur. J. Neurosci. 3, 32-39). At the beginning of the experimental period, in the region of 100 yeast spores, and unknown amounts of other common laboratory microbiological contaminants, were introduced into the flask. At the same time geneticin (1 mg/ml) was added. Thereafter, all manipulations of the medium and additions to the flask were conducted outside the sterile environment of the laminar flow cabinet.

Q: With `CN[C@@H]1[C@@H](O)[C@@H](O[C@@H]2[C@@H](O)[C@H](O[C@H]3O[C@H]([C@@H](C)O)[C@@H](O)[C@H](O)[C@H]3N)[C@@H](N)C[C@H]2N)OC[C@]1(C)O` [geneticin] as the compound, how does the “Survival of lung fibroblast cells (related to number of cells in control cultures without drug)” value ([1]; day 1 in culture) read?
A: 99

Q: What about the “Survival of lung fibroblast cells (related to number of cells in control cultures without drug)” value ([1]; day 3 in culture) of the same compound?
A: 101

Q: And the “Survival of lung fibroblast cells (related to number of cells in control cultures without drug)” value ([1]; day 5 in culture)?
A: 85

Q: What about the “Survival of lung fibroblast cells (related to number of cells in control cultures without drug)” value ([1]; day 7 in culture) of the same compound?
A: 23

Q: And the “Survival of lung fibroblast cells (related to number of cells in control cultures without drug)” value ([1]; day 9 in culture)?
A: 5

Q: What about the “Survival of lung fibroblast cells (related to number of cells in control cultures without drug)” value ([1]; day 11 in culture) of the same compound?
A: 2

Q: What about the “Survival of lung fibroblast cells (related to number of cells in control cultures without drug)” value ([2]; day 1 in culture) of the same compound?
A: 97

Q: And the “Survival of lung fibroblast cells (related to number of cells in control cultures without drug)” value ([2]; day 3 in culture)?
A: 105

Q: And the “Survival of lung fibroblast cells (related to number of cells in control cultures without drug)” value ([2]; day 5 in culture)?
A: 108

Q: And the “Survival of lung fibroblast cells (related to number of cells in control cultures without drug)” value ([2]; day 7 in culture)?
A: 101

Q: What about the “Survival of lung fibroblast cells (related to number of cells in control cultures without drug)” value ([2]; day 9 in culture) of the same compound?
A: 105

Q: And the “Survival of lung fibroblast cells (related to number of cells in control cultures without drug)” value ([2]; day 11 in culture)?
A: 111

Q: And the “Survival of lung fibroblast cells (related to number of cells in control cultures without drug)” value ([3]; day 1 in culture)?
A: 91

Q: What about the “Survival of lung fibroblast cells (related to number of cells in control cultures without drug)” value ([3]; day 3 in culture) of the same compound?
A: 94

Q: What about the “Survival of lung fibroblast cells (related to number of cells in control cultures without drug)” value ([3]; day 5 in culture) of the same compound?
A: 91

Q: What about the “Survival of lung fibroblast cells (related to number of cells in control cultures without drug)” value ([3]; day 7 in culture) of the same compound?
A: 93

Q: What about the “Survival of lung fibroblast cells (related to number of cells in control cultures without drug)” value ([3]; day 9 in culture) of the same compound?
A: 107

Q: And the “Survival of lung fibroblast cells (related to number of cells in control cultures without drug)” value ([3]; day 11 in culture)?
A: 105

Q: And the “Survival of thyroid cells (related to number of cells in control cultures without drug)” value ([4]; day 1 in culture)?
A: 95

Q: What about the “Survival of thyroid cells (related to number of cells in control cultures without drug)” value ([4]; day 3 in culture) of the same compound?
A: 91

Q: And the “Survival of thyroid cells (related to number of cells in control cultures without drug)” value ([4]; day 5 in culture)?
A: 85

Q: And the “Survival of thyroid cells (related to number of cells in control cultures without drug)” value ([4]; day 7 in culture)?
A: 56

Q: And the “Survival of thyroid cells (related to number of cells in control cultures without drug)” value ([4]; day 9 in culture)?
A: 9

Q: And the “Survival of thyroid cells (related to number of cells in control cultures without drug)” value ([4]; day 11 in culture)?
A: 4

Q: And the “Survival of thyroid cells (related to number of cells in control cultures without drug)” value ([5]; day 1 in culture)?
A: 104

Q: And the “Survival of thyroid cells (related to number of cells in control cultures without drug)” value ([5]; day 3 in culture)?
A: 105

Q: What about the “Survival of thyroid cells (related to number of cells in control cultures without drug)” value ([5]; day 5 in culture) of the same compound?
A: 98

Q: What about the “Survival of thyroid cells (related to number of cells in control cultures without drug)” value ([5]; day 7 in culture) of the same compound?
A: 88

Q: And the “Survival of thyroid cells (related to number of cells in control cultures without drug)” value ([5]; day 9 in culture)?
A: 93

Q: And the “Survival of thyroid cells (related to number of cells in control cultures without drug)” value ([5]; day 11 in culture)?
A: 98

Q: What about the “Survival of thyroid cells (related to number of cells in control cultures without drug)” value ([6]; day 1 in culture) of the same compound?
A: 91

Q: And the “Survival of thyroid cells (related to number of cells in control cultures without drug)” value ([6]; day 3 in culture)?
A: 94

Q: And the “Survival of thyroid cells (related to number of cells in control cultures without drug)” value ([6]; day 5 in culture)?
A: 91

Q: And the “Survival of thyroid cells (related to number of cells in control cultures without drug)” value ([6]; day 7 in culture)?
A: 93

Q: What about the “Survival of thyroid cells (related to number of cells in control cultures without drug)” value ([6]; day 9 in culture) of the same compound?
A: 107

Q: And the “Survival of thyroid cells (related to number of cells in control cultures without drug)” value ([6]; day 11 in culture)?
A: 105

Q: And the “Survival and development of the neural cells compared to uninfected control cells grown without geneticin” value [7]?
A: appeared unimpaired
